Experimental findings from ChEMBL document CHEMBL5665443, “Enzyme Inhibitor Single Concentration assay results for EUbOPEN Chemogenomics Library” (2024) are described below.

Experiment [1] concerns the target T1, Endonuclease 8-like 2 (Homo sapiens) (UniProt Q969S2).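 Further: fluorescence at 594 nm reports NEIL2 cutting and release of a quenched double-stranded DNA oligo substrate, reduced signal read as inhibition.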
T1 sequence (whole entry): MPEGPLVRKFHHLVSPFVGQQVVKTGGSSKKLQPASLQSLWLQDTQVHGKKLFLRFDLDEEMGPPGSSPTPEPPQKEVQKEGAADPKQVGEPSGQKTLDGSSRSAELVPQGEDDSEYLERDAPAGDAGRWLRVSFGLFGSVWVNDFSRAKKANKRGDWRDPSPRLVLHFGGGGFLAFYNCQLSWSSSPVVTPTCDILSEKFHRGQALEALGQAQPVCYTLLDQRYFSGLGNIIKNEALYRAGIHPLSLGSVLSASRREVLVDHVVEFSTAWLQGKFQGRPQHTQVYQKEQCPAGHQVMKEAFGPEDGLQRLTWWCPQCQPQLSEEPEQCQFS
The following applies: Compound Concentration 10.0 uM, Hit No.
Description: Inhibition of NEIL2 by quantifying inhibition of NEIL2-mediated cleavage and dissociation of quenched duplex DNA oligonucleotides, measured as fluorescence at 594 nm.

For experiment [2], the target named is T2, Single-strand selective monofunctional uracil DNA glycosylase (Homo sapiens) (UniProt Q53HV7).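 Further: enzymatic SMUG1 assay coupled with APE1, reading fluorescence at 594 nm released when a quenched double-stranded DNA oligonucleotide substrate is cleaved and separated.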
T2 sequence (whole entry): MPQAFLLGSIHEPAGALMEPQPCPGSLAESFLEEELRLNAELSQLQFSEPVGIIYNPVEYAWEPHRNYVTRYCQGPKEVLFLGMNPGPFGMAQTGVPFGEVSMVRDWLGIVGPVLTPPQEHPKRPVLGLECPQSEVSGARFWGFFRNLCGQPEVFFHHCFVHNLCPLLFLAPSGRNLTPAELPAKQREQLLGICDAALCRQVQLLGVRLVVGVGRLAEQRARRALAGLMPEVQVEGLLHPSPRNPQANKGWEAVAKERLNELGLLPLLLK
The following applies: Compound Concentration 10.0 uM, Hit No.
Description: Inhibition of SMUG1 by quantifying inhibition of SMUG1-mediated cleavage and dissociation of quenched duplex DNA oligonucleotides, measured as fluorescence at 594 nm. To generate a functional strand incision and increase turn-over this assay is coupled to APE1.

Experiment [3] concerns the target Endonuclease 8-like 1 (Homo sapiens) (UniProt Q96FI4). The following applies: Compound Concentration 10.0 uM, Hit No.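 Further: fluorescence at 594 nm from quenched duplex DNA oligonucleotides released by NEIL1 cleavage and strand separation, reported as reduction of this enzyme activity.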
Description: Inhibition of NEIL1 by quantifying inhibition of NEIL1-mediated cleavage and dissociation of quenched duplex DNA oligonucleotides, measured as fluorescence at 594 nm.
Experiment [4] concerns the target Uracil-DNA glycosylase (Homo sapiens) (UniProt P13051). The note with it: Compound Concentration 10.0 uM, Hit No.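 Further: UNG excision on a quenched double-stranded DNA oligo probe, with APE1 added for strand incision and turnover, read as fluorescence at 594 nm as strands separate.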
Description: Inhibition of UNG by quantifying inhibition of UNG-mediated cleavage and dissociation of quenched duplex DNA oligonucleotides, measured as fluorescence at 594 nm. To generate a functional strand incision and increase turn-over this assay is coupled to APE1.
In experiment [5] the target is T3, Adenine DNA glycosylase (Homo sapiens) (UniProt Q9UIF7).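 Further: human MUTYH activity read as 594 nm fluorescence from cleavage and release of a quenched DNA duplex, coupled with APE1 for strand incision, lower signal meaning inhibition.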
T3 sequence (whole entry): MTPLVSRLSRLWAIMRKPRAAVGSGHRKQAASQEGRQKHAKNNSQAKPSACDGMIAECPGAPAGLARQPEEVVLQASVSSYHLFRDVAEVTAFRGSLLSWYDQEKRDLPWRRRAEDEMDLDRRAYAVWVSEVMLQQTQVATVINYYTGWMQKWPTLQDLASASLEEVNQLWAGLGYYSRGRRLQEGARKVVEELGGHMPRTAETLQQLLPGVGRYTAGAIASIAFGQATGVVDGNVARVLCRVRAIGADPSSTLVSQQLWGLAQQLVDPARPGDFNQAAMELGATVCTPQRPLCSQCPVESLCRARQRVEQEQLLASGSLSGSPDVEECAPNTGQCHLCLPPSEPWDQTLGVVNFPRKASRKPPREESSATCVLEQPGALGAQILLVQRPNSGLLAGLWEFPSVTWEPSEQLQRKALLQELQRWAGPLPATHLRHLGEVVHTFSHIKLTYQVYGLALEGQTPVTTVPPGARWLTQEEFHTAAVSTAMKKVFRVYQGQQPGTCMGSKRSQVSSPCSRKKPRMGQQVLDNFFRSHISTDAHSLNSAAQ
The note with it: Compound Concentration 10.0 uM.
Description: Inhibition of MUTYH by quantifying inhibition of MUTYH-mediated cleavage and dissociation of quenched duplex DNA oligonucleotides, measured as fluorescence at 594 nm. To generate a functional strand incision and increase turn-over this assay is coupled to APE1.

Experiment [6] deals with G/T mismatch-specific thymine DNA glycosylase (Homo sapiens) (UniProt Q13569). The following applies: Compound Concentration 10.0 uM.
Chain of G/T mismatch-specific thymine DNA glycosylase (Homo sapiens) (Q13569 whole entry): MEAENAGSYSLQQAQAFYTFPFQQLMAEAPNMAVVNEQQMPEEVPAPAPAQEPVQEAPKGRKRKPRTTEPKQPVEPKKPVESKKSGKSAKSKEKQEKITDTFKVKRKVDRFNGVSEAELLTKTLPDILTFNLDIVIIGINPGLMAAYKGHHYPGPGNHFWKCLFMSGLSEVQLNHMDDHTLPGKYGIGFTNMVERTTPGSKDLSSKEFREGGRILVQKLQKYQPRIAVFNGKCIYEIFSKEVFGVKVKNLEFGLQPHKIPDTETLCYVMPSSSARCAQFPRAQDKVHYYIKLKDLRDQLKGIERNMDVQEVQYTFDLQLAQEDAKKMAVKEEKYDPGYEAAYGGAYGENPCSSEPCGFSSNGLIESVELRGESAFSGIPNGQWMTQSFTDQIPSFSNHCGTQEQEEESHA
Description: Inhibition of TDG by quantifying inhibition of TDG-mediated cleavage and dissociation of quenched duplex DNA oligonucleotides, measured as fluorescence at 594 nm. To generate a functional strand incision and increase turn-over this assay is coupled to APE1.
Experiment [7] has as its target T4, Endonuclease III-like protein 1 (Homo sapiens) (UniProt P78549).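 Further: enzyme assay tracking NTHL1 cutting and release of a quenched double-stranded DNA oligo substrate, read as fluorescence at 594 nm.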
T4 sequence (whole entry): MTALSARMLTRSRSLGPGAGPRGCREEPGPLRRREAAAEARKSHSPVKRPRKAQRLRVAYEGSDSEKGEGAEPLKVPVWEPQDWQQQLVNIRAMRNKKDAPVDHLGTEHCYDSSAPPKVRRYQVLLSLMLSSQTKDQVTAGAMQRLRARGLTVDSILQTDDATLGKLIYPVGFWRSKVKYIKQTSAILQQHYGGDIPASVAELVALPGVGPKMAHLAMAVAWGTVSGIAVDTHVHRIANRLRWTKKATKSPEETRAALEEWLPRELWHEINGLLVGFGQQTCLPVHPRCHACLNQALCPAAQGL
The following applies: Compound Concentration 10.0 uM, Hit No.
Description: Inhibition of NTHL1 by quantifying inhibition of NTHL1-mediated cleavage and dissociation of quenched duplex DNA oligonucleotides, measured as fluorescence at 594 nm.

In experiment [8] the target is Methyl-CpG-binding domain protein 4 (Homo sapiens) (UniProt O95243). The note with it: Compound Concentration 10.0 uM.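 Further: MBD4 activity read as fluorescence at 594 nm from cleavage and release of a quenched duplex DNA oligonucleotide, with APE1 coupled to incise the strand and raise turnover.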
Chain of Methyl-CpG-binding domain protein 4 (Homo sapiens) (O95243 whole entry, the tested form may be a part): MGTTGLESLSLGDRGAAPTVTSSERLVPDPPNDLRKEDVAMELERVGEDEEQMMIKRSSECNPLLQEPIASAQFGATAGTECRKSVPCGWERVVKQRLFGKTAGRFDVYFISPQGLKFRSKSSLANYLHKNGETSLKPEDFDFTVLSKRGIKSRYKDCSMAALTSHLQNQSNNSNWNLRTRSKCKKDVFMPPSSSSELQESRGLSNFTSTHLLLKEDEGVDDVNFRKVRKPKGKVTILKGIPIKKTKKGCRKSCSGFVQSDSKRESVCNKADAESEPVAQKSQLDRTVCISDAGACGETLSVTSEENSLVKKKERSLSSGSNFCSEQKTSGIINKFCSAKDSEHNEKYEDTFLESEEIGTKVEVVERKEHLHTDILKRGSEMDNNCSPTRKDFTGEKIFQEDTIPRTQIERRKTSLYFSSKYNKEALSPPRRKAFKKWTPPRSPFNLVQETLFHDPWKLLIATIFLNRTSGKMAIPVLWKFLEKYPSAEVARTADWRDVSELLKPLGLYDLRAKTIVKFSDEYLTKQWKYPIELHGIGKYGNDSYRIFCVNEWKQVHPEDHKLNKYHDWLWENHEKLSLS
Description: Inhibition of MBD4 by quantifying inhibition of MBD4-mediated cleavage and dissociation of quenched duplex DNA oligonucleotides, measured as fluorescence at 594 nm. To generate a functional strand incision and increase turn-over this assay is coupled to APE1.
The target in experiment [9] is DNA-3-methyladenine glycosylase (Homo sapiens) (UniProt P29372). The following applies: Compound Concentration 10.0 uM.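 Further: enzyme assay where MPG cuts a quenched duplex DNA oligonucleotide probe, paired with APE1 for strand incision and turnover, read as fluorescence at 594 nm.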
Chain of DNA-3-methyladenine glycosylase (Homo sapiens) (P29372 whole entry): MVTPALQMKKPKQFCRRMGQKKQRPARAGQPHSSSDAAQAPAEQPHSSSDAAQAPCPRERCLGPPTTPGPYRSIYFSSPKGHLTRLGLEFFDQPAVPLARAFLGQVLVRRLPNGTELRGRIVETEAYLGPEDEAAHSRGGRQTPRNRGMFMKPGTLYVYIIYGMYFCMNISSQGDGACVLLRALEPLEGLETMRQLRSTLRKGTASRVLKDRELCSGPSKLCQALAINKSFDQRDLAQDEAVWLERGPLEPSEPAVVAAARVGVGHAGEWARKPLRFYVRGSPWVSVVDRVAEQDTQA
Description: Inhibition of MPG by quantifying inhibition of MPG-mediated cleavage and dissociation of quenched duplex DNA oligonucleotides, measured as fluorescence at 594 nm. To generate a functional strand incision and increase turn-over this assay is coupled to APE1.
For experiment [10], the target named is N-glycosylase/DNA lyase (Homo sapiens) (UniProt O15527). The following applies: Compound Concentration 10.0 uM.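 Further: OGG1 cleavage of a quenched duplex DNA oligonucleotide, coupled to APE1 for strand incision, read as fluorescence at 594 nm.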
Chain of N-glycosylase/DNA lyase (Homo sapiens) (O15527 whole entry): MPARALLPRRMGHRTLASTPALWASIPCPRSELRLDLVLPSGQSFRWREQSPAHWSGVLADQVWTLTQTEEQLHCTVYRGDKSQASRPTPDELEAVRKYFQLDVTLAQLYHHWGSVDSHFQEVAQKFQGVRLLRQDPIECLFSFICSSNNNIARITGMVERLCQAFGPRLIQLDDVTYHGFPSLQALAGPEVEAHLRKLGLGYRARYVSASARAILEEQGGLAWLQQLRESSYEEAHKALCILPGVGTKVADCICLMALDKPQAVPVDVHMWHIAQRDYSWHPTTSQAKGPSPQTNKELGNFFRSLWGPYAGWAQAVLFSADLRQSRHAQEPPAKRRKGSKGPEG
Description: Inhibition of OGG1 by quantifying inhibition of OGG1-mediated cleavage and dissociation of quenched duplex DNA oligonucleotides, measured as fluorescence at 594 nm. To generate a functional strand incision and increase turn-over this assay is coupled to APE1.

The inhibition is the change of the read-out against control, counted positive when it falls.

Chain of Endonuclease 8-like 1 (Homo sapiens) (Q96FI4 whole entry): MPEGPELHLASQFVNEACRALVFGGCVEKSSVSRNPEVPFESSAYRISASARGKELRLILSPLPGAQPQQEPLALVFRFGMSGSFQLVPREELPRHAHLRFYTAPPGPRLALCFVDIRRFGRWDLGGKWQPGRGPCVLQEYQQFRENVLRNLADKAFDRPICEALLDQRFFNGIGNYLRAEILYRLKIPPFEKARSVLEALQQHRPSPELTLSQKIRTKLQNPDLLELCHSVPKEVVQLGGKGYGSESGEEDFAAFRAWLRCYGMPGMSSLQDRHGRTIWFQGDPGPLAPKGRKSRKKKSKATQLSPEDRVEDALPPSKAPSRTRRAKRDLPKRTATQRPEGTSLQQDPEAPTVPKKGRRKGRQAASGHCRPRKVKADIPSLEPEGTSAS
Chain of Uracil-DNA glycosylase (Homo sapiens) (P13051 whole entry): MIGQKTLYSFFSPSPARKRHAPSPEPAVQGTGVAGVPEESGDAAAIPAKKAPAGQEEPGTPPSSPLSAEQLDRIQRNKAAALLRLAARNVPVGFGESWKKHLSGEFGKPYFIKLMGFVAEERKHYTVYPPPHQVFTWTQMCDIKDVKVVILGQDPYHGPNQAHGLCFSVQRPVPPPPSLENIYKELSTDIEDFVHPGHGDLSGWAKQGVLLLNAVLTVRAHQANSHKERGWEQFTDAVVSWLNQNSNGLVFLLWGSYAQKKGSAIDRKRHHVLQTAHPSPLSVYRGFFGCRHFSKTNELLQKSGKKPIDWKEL

As to `CCCCC[C@H](O)/C=C/[C@@H]1[C@@H](C/C=C\CCCC(=O)O)[C@@H](O)C[C@H]1O`, the inhibition in experiment [1] was 0.515%; in experiment [2], 8.11%; in experiment [3], 7.21%; in experiment [4], -8.4%; in experiment [5] (Hit No), -4.2%; in [6] (Hit No) it was 25.5%. For the same compound, the inhibition in experiment [7] is 7.79%; in experiment [8] (Hit No), -2.06%; in [9] (Hit No) it was -6.92%.
On to `CC(C)(O)c1cnc(N2C[C@@]3(CCC[C@](C)(Cn4cnc5ccc(C#N)cc54)C3)OC2=O)cn1`, for which the inhibition is 5.76% in experiment [1]; 2.98% in [2]; 1.2% in [3]; -2.44% in [4]; 47.1% in experiment [5] (Hit No); 6.22% in experiment [6] (Hit No). Besides, the inhibition stood at 8% in [7], 9.84% in [8] (Hit No) and 10.5% in experiment [9] (Hit No).
For the compound `COC1(C[S@@+]([O-])c2ccccc2)CCN(CCc2c[nH]c3ccc(F)cc23)CC1`, the inhibition in experiment [2] was -8.49%; in experiment [3] it was 5.2%; in experiment [4], -4%; in experiment [5] (Hit No) it was -7.4%; in experiment [6] (Hit No), 6.29%; in experiment [7] it was 17.1%. In addition, the inhibition was 2.25% in [8] (Hit No) and -3.99% in experiment [9] (Hit No).
As to `CC(C)(C)c1ccc(NC(=O)N2CCN(c3ncccc3Cl)CC2)cc1`, the inhibition was -0.579% in experiment [2]; -1.77% in experiment [3]; -5.92% in [4]; -0.729% in experiment [5] (Hit No); 11% in [6] (Hit No); 21.2% in [7]. Moreover, the values for the inhibition in experiment [8] (Hit No) and in experiment [9] (Hit No) were 8.84% and 9.36%, respectively.
`CCNC(=O)[C@H]1O[C@@H](n2cnc3c(N)ncnc32)[C@H](O)[C@@H]1O`: the inhibition in [2] is -5.33%; in [3], 3.86%; in experiment [4], -2.94%; in experiment [5] (Hit No) it was -3.4%; in experiment [6] (Hit No), -4.15%; in [7] it was 17.9%. Also, the inhibition in [8] (Hit No) is -0.442%; in experiment [9] (Hit No), -3.56%.
For the compound `CC(C)(O)c1ccc2c(c1)ncn2-c1cccc(-c2ccccc2C#N)c1`, the inhibition was 1% in [2]; -1.62% in experiment [3]; -7.68% in [4]; -2.7% in [5] (Hit No); -5.39% in [6] (Hit No); 12.1% in experiment [7]. For the same compound, the figures for the inhibition in experiment [8] (Hit No) and in [9] (Hit No) were 26.4% and 3.49%, respectively.
Consider `C[S+]([O-])c1ccc(-c2nc(-c3ccc(F)cc3)c(-c3ccncc3)[nH]2)cc1` (configuration not stated), for which the inhibition in [1] is -0.483%; in experiment [3], -8.51%; in experiment [4], -3.45%; in [5] (Hit No), 13.8%; in experiment [6] (Hit No) it was 17.7%; in experiment [7], 15.1%. In addition, the inhibition turned out to be 6.37% in experiment [10] (Hit No), 16.5% in experiment [8] (Hit No) and 10.5% in experiment [9] (Hit No).
As to `C[C@@H](C(N)=O)[C@H](N)c1nc2ccc(C(C)(C)C)cc2[nH]1`, the inhibition in experiment [2] was -0.466%; in [3] it was 0.158%; in [4] it was -4.85%; in experiment [5] (Hit No), 0.595%; in experiment [6] (Hit No), 6.56%; in experiment [7], 12.9%. The inhibition in [8] (Hit No) turned out to be 10.2%; in [9] (Hit No) it was 2.09%.
Consider `NCCCCN(Cc1nc2ccccc2[nH]1)[C@H]1CCCc2cccnc21`, for which the inhibition in [1] is 6.78%; in [3] it was 10.7%; in experiment [4], -4.22%; in experiment [5] (Hit No), 5.47%; in experiment [6] (Hit No), 0.598%; in [7] it was -0.258%. In addition, the inhibition in experiment [10] (Hit No) is -6.41%; in [8] (Hit No), -9.01%; in experiment [9] (Hit No), -6.17%.
`Brc1c(NC2=NCCN2)ccc2nccnc12`: the inhibition is 6.5% in experiment [1]; -5.99% in experiment [2]; -5.69% in experiment [3]; -8.17% in [5] (Hit No); 1.79% in experiment [6] (Hit No); -4.67% in [7]. The inhibition in [8] (Hit Yes) is 140%; in experiment [9] (Hit No) it was -8.07%.
Take `O=C(Nc1ccc(Cl)cc1)N[C@@H](Cc1ccccc1)C(=O)N1CCCCC1`: the inhibition was -3.15% in [1]; 0.898% in experiment [3]; -3.64% in experiment [4]; 13.5% in [5] (Hit No); 22.9% in experiment [6] (Hit No); 17.9% in [7]. For the same compound, the inhibition in experiment [10] (Hit No) was -1.34%; in experiment [8] (Hit No) it was 27.2%; in experiment [9] (Hit No) it was 30.7%.
With `Clc1ccc(C2CC3CCC2N3)cn1` (configuration not stated), the inhibition in experiment [1] was -3.41%; in experiment [3] it was -1.03%; in experiment [4], -9.39%; in experiment [5] (Hit No), -3.17%; in experiment [6] (Hit No), 20.8%; in experiment [7], 7.17%. For the same compound, the inhibition in experiment [10] (Hit No) is -8.75%; in experiment [8] (Hit No), 11.8%; in [9] (Hit No) it was -6.44%.
For the compound `CCCCC(=O)N(Cc1ccc(-c2ccccc2C(=O)O)cc1)c1ccccc1`, the inhibition in experiment [1] was -3.15%; in experiment [3], 1.79%; in [4] it was -5.18%; in experiment [5] (Hit No), 18%; in experiment [6] (Hit No), 23.9%; in [7] it was 7.17%. For the same compound, the inhibition was -7.96% in experiment [10] (Hit No), 33.4% in [8] (Hit No) and 11.5% in [9] (Hit No).
In the case of `O=c1cc(-c2cc(F)c(Cl)nc2Cl)[nH]c2c(-c3ccccc3)c(C(F)(F)F)nn12`, the inhibition in experiment [1] is 16%; in experiment [3] it was -6.07%; in [4], 1.49%; in experiment [5] (Hit No), 63.1%; in [6] (Hit No) it was 54.8%; in experiment [7] it was 8%. Further, the inhibition in experiment [10] (Hit Yes) was determined as 60.4%; in [8] (Hit No) it was 66.3%; in experiment [9] (Hit No) it was 43.4%.
Regarding `Cc1ccccc1C#Cc1ccc(CCC(=O)O)cc1`, the inhibition in experiment [1] is 1.69%; in experiment [3], -4.44%; in experiment [4], -2.61%; in experiment [5] (Hit No), 12.8%; in experiment [6] (Hit No) it was 14.4%; in experiment [7], 6.35%. For the same compound, the inhibition in experiment [10] (Hit No) stood at 8.7%; in [8] (Hit No) it was 11.2%; in experiment [9] (Hit No), 10.7%.
On to `CCCCCCNC(=O)Nc1ccc(S(=O)(=O)Nc2ccc(CCNC[C@H](O)COc3ccc(O)cc3)cc2)cc1`, for which the inhibition in experiment [1] is -3.66%; in experiment [3], -4.58%; in experiment [4] it was 5.25%; in experiment [5] (Hit Yes), 107%; in [6] (Hit Yes), 105%; in experiment [7], 10.5%. The figures for the inhibition in [10] (Hit No), in experiment [8] (Hit Yes) and in experiment [9] (Hit Yes) were 3.62%, 102% and 105%, respectively.
In the case of `FC(F)(F)c1ccc(N2CCNCC2)nc1Cl`, the inhibition is -1.62% in experiment [1]; -3.1% in experiment [3]; -2.44% in experiment [4]; -0.34% in experiment [5] (Hit No); 27.6% in experiment [6] (Hit No); 11.3% in experiment [7]. Moreover, the inhibition was -4.95% in experiment [10] (Hit No), 12.7% in experiment [8] (Hit No) and 8.14% in experiment [9] (Hit No).
